Source: paper PMC7901650, “Garcinoic Acid Is a Natural and Selective Agonist of Pregnane X Receptor” (Journal of Medicinal Chemistry, 2020)

Key:
[1] = target: T1, LXRβ receptor (Homo sapiens, UniProt P55055); test: AlphaScreen nuclear receptor panel, LXRβ; type: biochemical
T1 construct: GST-LBD
T1 sequence (P55055 222-460 limits assumed): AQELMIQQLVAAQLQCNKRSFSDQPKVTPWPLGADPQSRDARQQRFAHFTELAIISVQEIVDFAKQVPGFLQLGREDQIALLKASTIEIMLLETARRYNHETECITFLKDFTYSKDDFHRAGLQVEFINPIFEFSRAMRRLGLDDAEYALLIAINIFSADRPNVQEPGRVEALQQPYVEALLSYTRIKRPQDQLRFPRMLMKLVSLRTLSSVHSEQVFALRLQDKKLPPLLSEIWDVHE
Text: (§1) Ligand binding activity of GA (1) was explored via AlphaScreen technology over a panel of NRs that, along with hPXR (Figure 1A), included major human endocrine and metabolic receptors, such as the retinoid X receptor (RXR), constitutive androstane receptor (CAR), farnesoid X receptor (FXR), vitamin D receptor (VDR), liver X receptor (LXR) forms α and β, and the PPAR isoforms α, δ, and γ (see Figure S1). GA (1) was compared to its analogue δ-tocotrienol (5), the vitamers 3 and 4, their short-chain metabolites (SCMs) α-CEHC (10) and γ-CEHC (11), and the LCMs 2 and 8 (Chart 1). The test was performed in the presence of reference standard agonists for the different NRs.
(§2) The activity of nuclear receptors was determined using AlphaScreen technology, a recruitment coactivator assay previously described.[56]
(§3) (A) The test was carried out at 10 μM compound final concentration. Ligand binding to nuclear receptors was expressed as luminescence units. […] Vehicle was assessed to obtain a measure of background signal (basal evaluation). […] In presence of the ligand, the nuclear receptor LBD undergoes conformational changes, binds to the coactivator and the chemical energy is transferred from donor to acceptor beads in order to produce a signal, i.e. luminescence; in this case the compounds behaves as agonist, changing the conformation of the receptor to recruit the coactivator. […]

[2] = target: T2, CAR (Homo sapiens, UniProt Q14994); test: AlphaScreen nuclear receptor panel, CAR; type: biochemical
T2 construct: GST-LBD
T2 sequence (Q14994 109-352 limits assumed): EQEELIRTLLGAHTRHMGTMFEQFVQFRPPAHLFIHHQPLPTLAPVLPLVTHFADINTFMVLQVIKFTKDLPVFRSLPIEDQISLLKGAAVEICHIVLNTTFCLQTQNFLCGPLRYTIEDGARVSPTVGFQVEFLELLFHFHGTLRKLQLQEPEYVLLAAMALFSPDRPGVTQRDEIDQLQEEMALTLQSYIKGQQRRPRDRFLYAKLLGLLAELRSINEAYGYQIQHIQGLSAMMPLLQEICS
Text: as §1, §2, §3

[3] = system: RXR; test: AlphaScreen nuclear receptor panel, RXR; type: biochemical, human
Text: as §1, §2, §3

[4] = system: HT29; test: PXR and CYP3A4 protein expression in HT29 cells; type: cell-based; settings: HT29, 24 h, 1 to 25 μM
Experimental: HepG2 (human hepatoma cell line; ATCC HB-8065, Manassas, VA) and HepaRG (HPRGC10, Thermo Fisher Scientific) cells were maintained in culture as previously described.[47] Experiments were performed between passages 2 and 10. Cell viability, clonogenic activity, and apoptotic cell death were assessed as previously described (see Figure S2).[58],[59] HT29 human colorectal adenocarcinoma cells (ATCC HTB-38) and its mucous-secreting HT29-MTX subclone (Sigma-Aldrich) were used as intestinal cell models. HT29 cells were cultured in RPMI (Invitrogen; Life Technologies) containing 10% FBS (v/v) and 1% (v/v) L-glutamine. HT29-MTX cells (from Sigma-Aldrich) were cultured in DMEM supplemented with 2 mM glutamine, 1% nonessential amino acids, and 10% FBS. […]
Cells were harvested and lysed in ice-cold cell lysis buffer (Cell Signaling Technology) and 20 μL/mL protease inhibitor cocktail (Roche). […] After incubation in ice for 1 h and centrifugation (12 000 rpm for 20 min at 4 °C), the supernatant was recovered, and total proteins were quantified by the BCA assay kit (Pierce, Thermo Fisher Scientific). […] The band intensity was analyzed using Gel Pro analyzer Software. […]
PXR and CYP3A4 protein was assessed by immunoblot (20 µg total protein loading) in HT29 cells (from ATCC) were cultured in RPMI (Invitrogen; Life Technologies) containing 10% FBS ( v/v) and 1% ( v/v) L-glutamine. […]

[5] = system: C57BL/6 wild-type male mice; test: Acute toxicity in mice after single oral bolus; settings: 100 mg single bolus by oral gavage, 24 h after the treatment

C/C(=C\CC/C(C)=C/CC[C@]1(C)CCc2cc(O)cc(C)c2O1)CC/C=C(\C)C(=O)O [GA (1), (2E,6E,10E)-13-[(2R)-6-hydroxy-2,8-dimethyl-chroman-2-yl]-2,6,10-trimethyltrideca-2,6,10-trienoic acid]
Agonist activity at LXRβ [1]: low activity
Effect on CAR (constitutive activation) [2]: partially inhibited
Response on RXR [3]: No response
PXR and CYP3A4 protein expression [4]: increase
Mortality [5]: 100%
